This is an account of results in US12410157B2, “Compound useful as toll-like receptor 7 activation inhibitor” (TOYAMA PREFECTURAL UNIVERSITY, priority 2020, dated 2025).

For one data set, the target named is T1, mouse TLR7 (Mus musculus, UniProt P58681).
T1 construct: expressed in transfected cells; host or cells: Ba/F3 cells (provided by Prof. Kensuke Miyake, University of Tokyo)
T1 sequence (P58681 27-1050): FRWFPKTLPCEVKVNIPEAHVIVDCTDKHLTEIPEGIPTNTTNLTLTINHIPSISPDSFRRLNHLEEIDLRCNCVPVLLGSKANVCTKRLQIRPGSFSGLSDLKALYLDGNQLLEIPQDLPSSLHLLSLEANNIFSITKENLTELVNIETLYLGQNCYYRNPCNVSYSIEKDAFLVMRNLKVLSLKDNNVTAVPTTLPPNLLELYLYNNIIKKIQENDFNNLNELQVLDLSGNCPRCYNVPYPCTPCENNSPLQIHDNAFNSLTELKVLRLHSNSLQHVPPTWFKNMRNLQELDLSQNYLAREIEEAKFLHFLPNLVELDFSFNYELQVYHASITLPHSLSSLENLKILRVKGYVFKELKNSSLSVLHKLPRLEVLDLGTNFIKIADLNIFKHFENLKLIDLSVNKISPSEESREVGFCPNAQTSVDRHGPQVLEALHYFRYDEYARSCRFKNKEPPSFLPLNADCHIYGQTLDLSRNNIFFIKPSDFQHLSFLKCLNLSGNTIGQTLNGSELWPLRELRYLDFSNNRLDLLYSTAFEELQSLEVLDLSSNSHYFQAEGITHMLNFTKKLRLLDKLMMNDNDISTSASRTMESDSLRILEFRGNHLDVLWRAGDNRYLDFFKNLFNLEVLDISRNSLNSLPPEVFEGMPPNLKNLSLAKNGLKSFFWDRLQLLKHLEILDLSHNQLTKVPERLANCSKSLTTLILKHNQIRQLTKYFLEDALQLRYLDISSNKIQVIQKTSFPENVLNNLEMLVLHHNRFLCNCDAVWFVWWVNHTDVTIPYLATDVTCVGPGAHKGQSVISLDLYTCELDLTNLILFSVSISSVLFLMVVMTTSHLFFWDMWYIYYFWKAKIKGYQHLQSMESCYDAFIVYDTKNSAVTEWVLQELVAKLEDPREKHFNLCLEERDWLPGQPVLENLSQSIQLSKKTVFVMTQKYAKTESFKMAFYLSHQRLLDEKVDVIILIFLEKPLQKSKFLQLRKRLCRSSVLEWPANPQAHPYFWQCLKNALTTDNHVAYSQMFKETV
The experiment in a line: Inhibition of TLR7 activation in mouse TLR7-expressing NF-κB-GFP reporter Ba/F3 cells. The following applies: for TLR7 activation inhibitory activity, comparison in words: from IC50 of Table 3 / Table 5. The data set is classed as cell-based. An excerpt: Mouse TLR7-expressing reporter cells (Ba/F3 cells) were used to evaluate inhibition of TLR7 activation in each derivative and CB-7. These cells were provided by Professor Kensuke Miyake (Department of Infection Genetics, Institute of Medical Science, University of Tokyo). These cells have been transfected with a reporter gene that connects GFP gene downstream of the promoter region of NF-κB. Therefore, the expression of GFP is enhanced by the addition of a ligand for TLR7 expressed by the cells. The fluorescence intensity of GFP was attenuated by the addition of each derivative, and the inhibition of TLR7 activation by each derivative was evaluated as an indicator.
Loxoribine (Alexis Biochemicals) was used as the ligand for mouse TLR7. Gardiquimod (Invivogen) was used as the ligand for human TLR7.
Ba/F3 cells cultured in RPMI 1640 medium containing 10% (v/v) fetal calf serum (FCS), 50 U/mL penicillin, 50 μg/mL streptomycin, 2 mM L-glutamine, […] 2-mercaptoethanol, 1 ng/mL interleukin-3 were aliquoted into 96-well plates so that the number of cells per well was 1.0×10^5 cells/100 μL. 50 μL of each derivative or CB-7, prepared to final concentrations of 1, 5, 10, 25, 50, and 100 µM, was added to each well. 96-well plates were incubated at 37° C. for 30 minutes in the presence of 5% CO2. Next, 250 μg/mL Roxoribin was added to each well and incubated for 18 hours. At the end of incubation, cells were washed with PBS (FACS buffer) containing 2.5% (v/v) FCS and suspended in 200 μL of FACS buffer containing 25 μg/mL […] for each cell. GFP fluorescence intensities of the cells were analyzed by flow cytometry. Flow cytometry measurement was performed on a FACSCanto™ II (Becton Dickinson) and data were analyzed with FlowJo software (Tree Star). The MFI (%) upon stimulation with roxoribin in the presence of […] derivatives or CB-7 was calculated using the MFI upon stimulation with roxoribin alone as 100%, and then IC50 (chemical compound concentration that inhibits activity by 50%) was calculated by logistic regression analysis.
The evaluation of the TLR7 activation inhibition by B2-24-4-5A·HCOOH was performed by the method described in Example 2. CB-7 and B2-24-4·HCl were used as controls.

Data set [1] concerns Cytochrome P450 (CYP), mouse liver microsomes. Description: Metabolic stability (CYP) using mouse liver microsomes, HPLC. Conditions: for Number of peaks detected by HPLC: 0.1 mg/mL, 37° C., 30 minutes or 2 hours; for Drug metabolism mainly by CYPs compared to CB-7: words. Format: in vitro ADME. The procedure: For CB-7, B2-24, and B2-5A, 10 mg/mL DMSO solution was used. Each chemical compound was diluted with acetonitrile to 0.1 mg/mL, which was used as the analytical standard. Mouse liver microsomal fractions were rapidly thawed in a warm bath at 37° C. and kept on ice. Reaction buffer containing CYP cofactor was prepared on ice and mixed with the microsomal fractions. The reaction solution was preincubated at 37° C. for 5 minutes, and then the test substance solution was added and mixed well by pipetting. The volume of the reaction solution was 200 μL and the final concentration of the test substance was 0.1 mg/mL. The reaction solution was incubated at 37° C. for 30 minutes or 2 hours, and the reaction was stopped by adding 3 times the volume of acetonitrile and vortexing. After the reaction was stopped, the samples were centrifuged, and each supernatant was separated and dried in an evaporator. 50 μL of 50% acetonitrile solution was added to each solidified sample, and each sample was re-dissolved by vortexing for 5 minutes. Each redissolved solution was centrifuged, and each supernatant was subjected to HPLC analysis using a HITACHI Lachrom ELITE (HITACHI) as a HPLC system and COSMOSIL 5C18-MS-II, 4.6 mmI.D.×150 mm (nacalai tesque Co.) as a column.
Metabolic stability analysis of CB-7 and B2-24-4-5A·HCOOH was performed by the method of Example 5.
(In general: Liver microsomes are a subcellular fraction often used to study metabolism.)

[2] abbreviates: Example 2, Ba/F3 reporter cells, loxoribine stimulation 18 hours, GFP MFI, read-out: IC50 of CB-7 derivatives with modified Areas a and b.

Counter-ions that a name gives are not always drawn. Like-named read-outs stand apart in the source and are kept apart here.

One may read the IC50 as the concentration needed to halve the response being measured. In the case of `C=C[C@]1(CO)CC[C@@H](C(=C)C)[C@H](c2ccc(CN3CC(F)(F)C3)cc2)C1` [B2-24-3], the IC50 on mouse TLR7 (setting [2]) was determined as 1260 nM. The “TLR7 activation inhibitory activity, comparison in words” value (from here on “TLR7 activation inhibitory activity”) at mouse TLR7 is “higher TLR7 activation inhibitory activity than CB-7”.
On to `C=C[C@]1(CO)CC[C@@H](C(=C)C)[C@H](c2ccc3ccccc3c2)C1` [B2-19], for which the IC50 on mouse TLR7 (setting [2]) is greater than 100000 nM.
In the case of `C=C[C@]1(CC)CC[C@@H](C(=C)C)[C@H](c2ccc(CN(CC)CC)cc2)C1` [B2-22], on mouse TLR7 (setting [2]), the IC50 amounted to 310 nM. Moreover, the “TLR7 activation inhibitory activity” value at mouse TLR7 was “higher TLR7 activation inhibitory activity than CB-7”.
For `C=C[C@]1(CO)CC[C@@H](C(=C)C)[C@H](c2ccc(CN3CCOCC3)cc2)C1` [B2-24-2] the same measures were 710 nM and “higher TLR7 activation inhibitory activity than CB-7”.
For the compound `C=C(C)[C@@H]1CC[C@]2(COC(=O)C2)C[C@H]1c1ccc2ccccc2c1` [B2-5A-1], at mouse TLR7 (setting [2]), the IC50 is greater than 100000 nM.
As for `C=C(C)[C@@H]1CC[C@]2(COC(=O)C2)C[C@H]1c1ccc(OC)cc1` [B2-5A], at mouse TLR7 (setting [2]), the half-inhibitory concentration (IC50) is 2430 nM. For the same compound, the “TLR7 activation inhibitory activity” value at mouse TLR7 is given as “higher TLR7 activation inhibitory activity than CB-7”. For the same compound, in data set [1] (Example 3), the “Predicted metabolic modifications (CYP)” value was “+O” and the “Number of peaks detected by HPLC” value is recorded as 4. In data set [1], the “Drug metabolism mainly by CYPs compared to CB-7” value is recorded as “improved drug metabolism mainly by CYPs compared to CB-7”.
Consider `C=C(C)[C@@H]1CC[C@@](CO)(CC(=O)N(C)C)C[C@H]1c1ccc(OC)cc1` [B2-6], for which the IC50 on mouse TLR7 (setting [2]) is greater than 100000 nM.
In the case of `C=C[C@]1(CO)CC[C@@H](C(=C)C)[C@H](c2ccc(-c3ccccc3)cc2)C1` [B2-18], the IC50 at mouse TLR7 (setting [2]) was greater than 50000 nM.
On the same count and under the same terms, then `C=C(C)[C@@H]1CCC(O)(CN(C)C)C[C@H]1c1ccc(OC)cc1` (stereo partly shown) [B2-2A], with greater than 100000 nM.
For `C=C(C)[C@@H]1CC[C@]2(COC(=O)C2)C[C@H]1c1ccc(OCCCO)cc1` [B2-5A-7], the IC50 at mouse TLR7 (setting [2]) was determined as 2500 nM. The “TLR7 activation inhibitory activity” value at mouse TLR7 was “higher TLR7 activation inhibitory activity than CB-7”.
Take `C=CC[C@]1(CO)CC[C@@H](C(=C)C)[C@H](c2ccc(OCCCO)cc2)C1` [B2-28]: the IC50 on mouse TLR7 (setting [2]) is 1660 nM. For the same compound, on mouse TLR7, the “TLR7 activation inhibitory activity” value is given as “higher TLR7 activation inhibitory activity than CB-7”.
In the case of `C=C[C@]1(CO)CC[C@@H](C(=C)C)[C@H](c2ccc(CN3CCNCC3)cc2)C1` [B2-24-4•HCl], the IC50 is 87 nM on mouse TLR7 (setting [2]) and 167 nM at mouse TLR7 (Example 5, Table 5, method of Example 2, read-out: IC50).
As for `C=C(C)[C@@H]1CC[C@@](CO)(CC(=O)N2CCOCC2)C[C@H]1c1ccc(OC)cc1` [B2-6-7], the IC50 at mouse TLR7 (setting [2]) came to 9360 nM.
Take `C=C(C)[C@@H]1CCC(=O)C[C@H]1c1ccc(OC)cc1` [I-7(Intermediate)]: the IC50 on mouse TLR7 (setting [2]) is greater than 100000 nM.
Still for that read-out and setting: the result for `C=C(C)[C@@H]1CC[C@@](COC)(CC(=O)O)C[C@H]1c1ccc(OC)cc1` [B2-5B] reads greater than 100000 nM.
Turning to `C=C[C@]1(CO)CC[C@@H](C(=C)C)[C@H](c2ccc(COCCCO)cc2)C1` [B2-26], on mouse TLR7 (setting [2]), the IC50 amounted to 1260 nM. Further, the “TLR7 activation inhibitory activity” value on mouse TLR7 is listed as “higher TLR7 activation inhibitory activity than CB-7”.
For the compound `C=C(C)[C@@H]1CC[C@@](CO)(CCN(C)C)C[C@H]1c1ccc(OC)cc1` [B2-6A], the IC50 at mouse TLR7 (setting [2]) was greater than 100000 nM.
Turning to `C=C(C)[C@@H]1CC[C@](CC(=O)O)(C(=O)OC)C[C@H]1c1ccc(OCCCO)cc1` [B2-5A-7-1], the IC50 at mouse TLR7 (setting [2]) was greater than 10000 nM.
The same measure, in the same setting: the result for `C=C[C@]1(C(=O)OC)CC[C@@H](C(=C)C)[C@H](c2ccc(O)cc2)C1` [B2-27] reads greater than 100000 nM.
In the case of `C=CC[C@]1(CO)CC[C@@H](C(=C)C)[C@H](c2ccc(OCC(C)CO)cc2)C1` (stereo partly shown) [B2-29], the IC50 on mouse TLR7 (setting [2]) is 1740 nM. In addition, at mouse TLR7, the “TLR7 activation inhibitory activity” value is on record as “higher TLR7 activation inhibitory activity than CB-7”.
Take `C=C[C@]1(CO)CC[C@@H](C(=C)C)[C@H](c2ccc(COCCOC)cc2)C1` [B2-13]: the IC50 at mouse TLR7 (setting [2]) stood at 910 nM. In addition, at mouse TLR7, the “TLR7 activation inhibitory activity” value is reported as “higher TLR7 activation inhibitory activity than CB-7”.
For `C=C(C)[C@@H]1CC[C@]2(COC(=O)C2)C[C@H]1c1ccc(CN(CC)CC)cc1` [B2-5A-6] the same measures were 210 nM and “higher TLR7 activation inhibitory activity than CB-7”.
Turning to `C=C[C@]1(CO)CC[C@@H](C(=C)C)[C@H](c2ccc(-c3ccc(OC)cc3)cc2)C1` [B2-23], the IC50 at mouse TLR7 (setting [2]) was greater than 100000 nM.
In the case of `C=C[C@]1(CO)CC[C@@H](C(=C)C)[C@H](c2ccc(CN3CCC(F)(F)CC3)cc2)C1` [B2-24-1], the IC50 on mouse TLR7 (setting [2]) was determined as 1050 nM. Further, the “TLR7 activation inhibitory activity” value on mouse TLR7 is “higher TLR7 activation inhibitory activity than CB-7”.
For `C=C(C)[C@@H]1CC[C@]2(COC(=O)C2)C[C@H]1c1ccc(CN2CCCC2)cc1` [B2-5A-9] the same measures were 300 nM and “higher TLR7 activation inhibitory activity than CB-7”.
On to `C=C[C@]1(CO)CC[C@@H](C(=C)C)[C@H](c2ccc(Oc3ccccc3)cc2)C1` [B2-21], for which the IC50 on mouse TLR7 (setting [2]) is greater than 50000 nM.
The same measure, in the same setting: then `C=C(C)[C@@H]1CCC(O)(CNS(C)(=O)=O)C[C@H]1c1ccc(OC)cc1` (stereo partly shown) [B2-3A], with greater than 10000 nM.
Consider `C=C[C@]1(CO)CC[C@@H](C(=C)C)[C@H](c2ccc(CN3CCCC3)cc2)C1` [B2-24], for which the IC50 on mouse TLR7 (setting [2]) is 440 nM. Also, the “TLR7 activation inhibitory activity” value at mouse TLR7 is “higher TLR7 activation inhibitory activity than CB-7”. Also, in data set [1] (Example 3), the “Number of peaks detected by HPLC” value is listed as 4. In data set [1], the “Drug metabolism mainly by CYPs compared to CB-7” value was “improved drug metabolism mainly by CYPs compared to CB-7”.
On to `C=C(C)[C@@H]1CC[C@]2(COC(=O)C2)C[C@H]1c1ccc(COCCOC)cc1` [B2-5A-4], for which the IC50 at mouse TLR7 (setting [2]) amounted to 2570 nM. Besides, on mouse TLR7, the “TLR7 activation inhibitory activity” value is “higher TLR7 activation inhibitory activity than CB-7”.
